compound: CC(C)=CC[C@@H](O)C1=CC(=O)c2c(O)ccc(O)c2C1=O [Shikonin] + COc1cc2c(Oc3ccc(NC(=O)C4(C(=O)Nc5ccc(F)cc5)CC4)cc3F)ccnc2cc1OCCCN1CCOCC1 [Foretinib] (partner 0.25 µM); test: relative viability (nuclei count vs DMSO), 5 days (fraction); higher = more cells survive; settings: first compound 0.01 µM
Procedure, shortened: (§1)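 The day after seeding in 1536-well plates, lung cancer cell lines were treated by pin tool with a single drug, or with a fixed anchor-drug dose together with five library-drug doses (not always all listed) in √10 steps. After 5 days, a combined fix-and-stain solution (final 0.05% Triton X-100, 1% formaldehyde, 1 ug/ml Hoechst) was added. Nuclei counted on 4× images gave relative viability as treated counts over vehicle counts, reported as the median of duplicate plates.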

Row | Cell Line | relative viability
1 | NCI-H2170 | 1.03
2 | NCI-H3122 | 0.959
3 | HOP-62 | 1.28
4 | LU99A | 0.854
5 | BEN | 0.576
6 | HARA | 0.936
7 | HCC-78 | 0.562
8 | NCI-H441 | 0.941
9 | LCLC-97TM1 | 0.949
10 | A-427 | 1.16
11 | NCI-H460 | 1.09
12 | NCI-H838 | 1.08
13 | NCI-H1734 | 0.762
14 | NCI-H596 | 0.868
15 | NCI-H2405 | 1.06
16 | NCI-H1395 | 0.955

Row | Cell Line | relative viability
17 | 201T | 1.07
18 | NCI-H1915 | 1.13
19 | HCC-827 | 0.976
20 | LXF-289 | 0.987
21 | NCI-H2347 | 1.15
22 | CAL-12T | 1.02
23 | NCI-H1651 | 0.883
24 | EPLC-272H | 0.715
25 | NCI-H23 | 1.09
26 | NCI-H1355 | 1.03
27 | NCI-H322M | 0.996
28 | NCI-H1437 | 1.37
29 | NCI-H1755 | 0.932
30 | NCI-H2085 | 0.851
31 | HCC-15 | 1.05

same assay, conditions: first compound 0.1 µM

Row | Cell Line | relative viability
32 | NCI-H2170 | 0.88
33 | NCI-H3122 | 0.997
34 | HOP-62 | 1.25
35 | LU99A | 0.815
36 | BEN | 0.744
37 | HARA | 1.13
38 | HCC-78 | 0.621
39 | NCI-H441 | 1.17
40 | LCLC-97TM1 | 1.02
41 | A-427 | 1.26
42 | NCI-H460 | 0.797
43 | NCI-H838 | 1.16
44 | NCI-H1734 | 0.681
45 | NCI-H596 | 0.824
46 | NCI-H2405 | 1.08
47 | NCI-H1395 | 0.949

Row | Cell Line | relative viability
48 | 201T | 1.15
49 | NCI-H1915 | 1.12
50 | HCC-827 | 1.15
51 | LXF-289 | 1.02
52 | NCI-H2347 | 1.27
53 | CAL-12T | 1.08
54 | NCI-H1651 | 0.758
55 | EPLC-272H | 0.601
56 | NCI-H23 | 1.07
57 | NCI-H1355 | 1.16
58 | NCI-H322M | 1.37
59 | NCI-H1437 | 1.26
60 | NCI-H1755 | 1.02
61 | NCI-H2085 | 1.06
62 | HCC-15 | 1.02

same assay, conditions: first compound 0.3162 µM

Row | Cell Line | relative viability
63 | NCI-H2170 | 1.06
64 | NCI-H3122 | 0.947
65 | HOP-62 | 1.28
66 | LU99A | 0.797
67 | BEN | 0.839
68 | HARA | 0.865
69 | HCC-78 | 0.614
70 | NCI-H441 | 0.849
71 | LCLC-97TM1 | 0.912
72 | A-427 | 1.21
73 | NCI-H460 | 1.12
74 | NCI-H838 | 1.2
75 | NCI-H1734 | 0.869
76 | NCI-H596 | 0.777
77 | NCI-H2405 | 1.15
78 | NCI-H1395 | 0.948

Row | Cell Line | relative viability
79 | 201T | 1.19
80 | NCI-H1915 | 1.15
81 | HCC-827 | 1.06
82 | LXF-289 | 0.998
83 | NCI-H2347 | 0.835
84 | CAL-12T | 1.23
85 | NCI-H1651 | 0.93
86 | EPLC-272H | 0.783
87 | NCI-H23 | 1.03
88 | NCI-H1355 | 1.04
89 | NCI-H322M | 1.06
90 | NCI-H1437 | 1.26
91 | NCI-H1755 | 0.967
92 | NCI-H2085 | 0.996
93 | HCC-15 | 1.12

same assay, conditions: first compound 1 µM

Row | Cell Line | relative viability
94 | NCI-H2170 | 1.02
95 | NCI-H3122 | 1.01
96 | HOP-62 | 1.28
97 | LU99A | 0.744
98 | BEN | 0.848
99 | HARA | 0.883
100 | HCC-78 | 0.627
101 | NCI-H441 | 1.04
102 | LCLC-97TM1 | 0.962
103 | A-427 | 1.16
104 | NCI-H460 | 0.994
105 | NCI-H838 | 0.999
106 | NCI-H1734 | 0.915
107 | NCI-H596 | 0.941
108 | NCI-H2405 | 1.03
109 | NCI-H1395 | 0.939

Row | Cell Line | relative viability
110 | 201T | 1.25
111 | NCI-H1915 | 1.2
112 | HCC-827 | 1.08
113 | LXF-289 | 0.972
114 | NCI-H2347 | 0.953
115 | CAL-12T | 1.16
116 | NCI-H1651 | 0.714
117 | EPLC-272H | 0.726
118 | NCI-H23 | 0.983
119 | NCI-H1355 | 1.04
120 | NCI-H322M | 0.99
121 | NCI-H1437 | 1.27
122 | NCI-H1755 | 0.956
123 | NCI-H2085 | 0.753
124 | HCC-15 | 0.986

compound: CC(C)N(CCCNC(=O)Nc1ccc(C(C)(C)C)cc1)C[C@H]1O[C@@H](n2ccc3c(N)ncnc32)[C@H](O)[C@@H]1O + Cc1nc(NC(=O)N2CCC[C@H]2C(N)=O)sc1-c1ccnc(C(C)(C)C(F)(F)F)c1 [Alpelisib] (partner 2 µM); test: as above; settings: first compound 0.08 µM
Procedure, shortened: as §1

Row | Cell Line | relative viability
125 | NCI-H2170 | 0.736
126 | NCI-H3122 | 0.808
127 | HOP-62 | 0.997
128 | LU99A | 0.477
129 | BEN | 0.909
130 | HARA | 0.795

Source: the supplement of paper PMC10307832
